Measurements: US8957106B2, “Iminosugar treatment of tumors” (The Chancellor, Masters and Scholars of the University of …, priority 2007, dated 2015)
Where two headings read alike, the source gives them in different places.

Columns and labels:
[1] = read-out: IC50 doses reported by other in vitro studies, cited from earlier work
[2] = test system: MelJuSo melanoma cells; test: MTS cell viability assay, MelJuSo; type: cell-based; conditions: Homo sapiens, MEL-JUSO, 24 h, read-out: IC50
Procedure: (§1) Cells were cultured at indicated densities for 24 h, medium was removed and the incubation was continued in a fresh culture medium containing various GC2 or DTIC concentrations. In control experiments, cells were grown in a culture medium containing GC2 buffer.
(§2) The standard […] (MTS)-3-(4,5-dimethylthiazol-2-yl)-5-(3-carboxymethoxyphenyl)-2-(4-sulphophenyl)-2H-tetrazolium inner salt solution assay was performed in order to examine the cytotoxic/cytostatic effect of GC2 on melanoma cells. Briefly, 7.5×10^3 cells were seeded in 96-well microtiter plates (Nunc). After an overnight incubation, serial dilutions of GC2 or DTIC were added in triplicate to a final volume of 100 μl. The blank was represented by a culture medium without cells containing the highest GC2 or DTIC concentration. After 24 h of incubation 20 μl MTS was added to each well and all samples were incubated for 3 h at 37° C. An absorbance of each well was read at 450 nm in a microplate reader. A percentage of cell viability was calculated considering that 100% cell viability was represented by an absorbance of untreated samples […]. Alternatively, the number of viable cells was determined by Trypan blue exclusion test. Melanoma cells treated with GC2 were trypsinized and cells negative for blue staining (viable cells) were counted using a hemocytometer. […]

[3] = test system: SKMel28 melanoma cells; test: MTS cell viability assay, SKMel28; type: cell-based; conditions: Homo sapiens, SK-MEL-28, SKMel28, 24 h, read-out: IC50
Procedure: as §1, §2

[4] = test system: B16F10 melanoma cells; test: MTS cell viability assay, B16F10; type: cell-based, murine; conditions: Mus musculus, B16-F10, B16F10, 24 h, read-out: IC50
Procedure: as §1, §2

[5] = test system: MNT-1 melanoma cells; test: MTS cell viability assay, MNT-1; type: cell-based; conditions: Homo sapiens, MNT-1, 24 h, read-out: IC50
Procedure: as §1, §2

[6] = test system: B16D2 melanoma cells; test: MTS cell viability assay, B16D2; type: cell-based; conditions: B16D2, 24 h, read-out: IC50
Procedure: as §1, §2

Structure (SMILES): CCCCCCCCCCCCC/C=C/[C@@H](O)[C@H](CO)NC(C)=O [C2-ceramide]
- IC50 ([1]; literature data): 100 µM

Structure (SMILES): CN(C)N=Nc1[nH]cnc1C(N)=O [DTIC, 5-(3,3-dimethyl-1-triazeno)-imidazole-4-carboxamide, reference compound]
- IC50 [2]: 3 to 4 mM
- IC50 [3]: 3 to 4 mM
- IC50 ([1]; literature data (Lev et al. 2004)): 1000 µM
- IC50 [4]: 3 to 4 mM
- IC50 [5]: 3 to 4 mM
- IC50 [6]: 3 to 4 mM
